Reference: article PMC6278366, “Synthesis and Evaluation of Anticancer Activities of Novel C-28 Guanidine-Functionalized Triterpene Acid Derivatives” (Molecules, 2018)
Counter-ions that a name gives are not always drawn. Like-named read-outs stand apart in the source and are kept apart here.

Experiments:
[1] = system: HeLa (cervical cancer) cells; assay: Cytotoxicity assay (7-AAD viability, flow cytometry), HeLa; format: cell-based, human; settings: mean ± SE, at least three experiments in duplicate, viable cells
Experimental: (§1) Cells (Jurkat, K562, U937, HeLa, HEK293 and normal Fibroblasts) were purchased from Russian Cell Culture Collection (Institute of Cytology of the Russian Academy of Sciences, Saint Petersburg, Russia) and cultured according to standard mammalian tissue culture protocols and sterile technique. Human cell lines HEK293 and HeLa were obtained from the HPA Culture Collections (Salisbury, UK). All cell lines used in the study were tested and shown to be free of mycoplasma and viral contamination.
(§2) HEK293, HeLa cell lines and fibroblasts were cultured as monolayers and maintained in Dulbecco’s modified Eagle’s medium (DMEM, Gibco BRL, Waltham, MA, USA) supplemented with 10% foetal bovine serum and 1% penicillin-streptomycin solution at 37 °C in a humidified incubator under a 5% CO2 atmosphere.
(§3) Cells were maintained in RPMI 1640 (Jurkat, K562, U937) (Gibco, Thermo Fisher Scientific, Waltham, MA, USA) supplemented with 4 mM glutamine, 10% FBS (Sigma, Burlington, MA, USA) and 100 units/mL penicillin-streptomycin (Sigma). All types of cells were grown in an atmosphere of 5% CO2 at 37 °C. The cells were subcultures at 2–3 days intervals. Adherent cells (HEK293, HeLa, fibroblasts) were suspended using trypsin/EDTA and counted after they have reached 80% confluency. Cells were then seeded in 24 well plates at 5 × 10^4 cells per well and incubated overnight. Jurkat, K562, U937 cells were subcultured at 2 day intervals with a seeding density of 1 × 10^5 cells per 24 well plates in RPMI with 10% FBS.
(§4) Viability (Live/dead) assessment was performed by staining cells with 7-AAD (7-Aminoactinomycin D) (Biolegend, San Diego, CA, USA). Cells were treated of test compounds with six different concentrations (1, 5, 10, 15, 30 and 60 μM). After treatment, cells were harvested, washed 1–2 times with phosphate-buffered saline (PBS) and centrifuged at 400× g for 5 min. Cell pellets were resuspended in 200 μL of flow cytometry staining buffer (PBS without Ca^2+ and Mg^2+, 2.5% FBS) and stained with 5 μL of 7-AAD staining solutionfor 15 min at room temperature in the dark. Samples were acquired on NovoCyteTM 2000 FlowCytometry System (ACEA, San Diego, CA, USA) equipped with 488 nm argon laser. Detection of 7-AAD emission was collected through a 675/30 nm filter in FL4 channel.

[2] = system: U937 (histiocytic lymphoma) cells; assay: Cytotoxicity assay (7-AAD viability, flow cytometry), U937; format: cell-based, human; settings: at least three experiments in duplicate, viable cells, read-out: IC50 U937
Experimental: as §1, §3, §4

normal human fibroblasts = assay: Cytotoxicity assay (7-AAD viability, flow cytometry), normal fibroblasts; format: cell-based; settings: mean ± SE, at least three experiments in duplicate
Experimental: as §1, §2, §3
as §4, with “Cells were treated of test compounds with six different concentrations (1, 5, 10, 15, 30 and 60 μM).” left out

[3] = system: Jurkat (T-lymphoblastic leukemia) cells; assay: cells; format: cell-based; settings: mean ± SE, at least three experiments in duplicate, viable cells, read-out: IC50 Jurkat
Experimental: as §1, §3, §4

[4] = system: K562 (chronic myeloid leukemia) cells; assay: Cytotoxicity assay (7-AAD viability, flow cytometry), K562; format: cell-based, human; settings: at least three experiments in duplicate, viable cells, read-out: IC50 K562
Experimental: as §1, §3, §4

[5] = system: HEK293 (embryonic kidney) cells; assay: Cytotoxicity assay (7-AAD viability, flow cytometry), HEK293; format: cell-based, human; settings: at least three experiments in duplicate, viable cells
Experimental: as §1, §2, §3, §4

Jurkat cells = assay: Annexin V/7-AAD apoptosis assay by flow cytometry; format: cell-based, human; settings: 48 h; for early apoptotic cells (Q7-4) / late apoptotic cells (Q7-2) / living (vital) cells (Q7-3) / necrotic cells (Q7-1): at IC50 concentration (59 μM Dihydro BA; 4 μM 15, 15c, 18c; 8 μM 20c); for total number of apoptotic cells (early + late): at IC50 concentration (59 μM Dihydro BA; 4 μM 15c; 8 μM 20c)
Experimental: Apoptosis was determined by flow cytometric analysis of Annexin V and 7-aminoactinomycin D staining. Briefly, 200 μL of Guava Nexin reagent (Millipore, Bedford, MA, USA) was added to 5 × 10^5 cells in 200 μL, and the cells were incubated with the reagent for 20 min at room temperature in the dark. […] At the end of incubation, the cells were analyzed on NovoCyteTM 2000 FlowCytometry System (ACEA). Different states of cell death were defined as follows: normal cells are localized in the lower-left quadrant (Annexin V^−/PI^−); early apoptotic cells are in the lower-right quadrant (Annexin V^+/PI^−); late apoptotic cells and necrotic cells are in the upper-right quadrant (Annexin V^+/PI^+); and necrotic cells are in the upper-left quadrant (Annexin V^−/PI^+).
Figure 2 AnnexinV/7-AAD staining upon induction of apoptosis in Jurkat cells. […] Then, the cells were harvested, stained with Annexin V/7-AAD and analyzed by flow cytometry. The experiments were performed three times, and the results of the representative experiments are shown. The first cytogram represents an untreated cell sample (A); after incubation with dihydrobetulinic acid for 24 h (B) and for 48 h (C); after incubation with compound 15 for 24 h (D) and for 48 h (E); after incubation with compound 15c for 24 h (F) and for 48 h (G); after incubation with compound 18c for 24 h (H) and for 48 h (I); after incubation with compound 20c for 24 h (J) and for 48 h (K). Q7-1, necrotic cells; Q7-2, late apoptotic cells; Q7-3, living cells; Q7-4, early apoptotic cells. TEXT PRINTED IN THE PICTURE: (B) Dihydro BA: Q7-1 0.96% (59 μM); Q7-2 12.11% (59 μM); Q7-3 80.09% (59 μM); Q7-4 6.84% (59 μM) | (C) Dihydro BA: Q7-1 2.34% (59 μM); Q7-2 20.53% (59 μM); Q7-3 73.11% (59 μM); Q7-4 4.02% (59 μM) | (D) Compound 15: Q7-1 3.08% (4 μM); Q7-2 2.24% (4 μM); Q7-3 92.34% (4 μM); Q7-4 2.34% (4 μM) | (E) Compound 15: Q7-1 5.53% (4 μM); Q7-2 91.79% (4 μM); Q7-3 0.58% (4 μM); Q7-4 2.10% (4 μM) | (F) Compound 15c: Q7-1 1.51% (4 μM); Q7-2 2.64% (4 μM); Q7-3 84.92% (4 μM); Q7-4 10.93% (4 μM) | (G) Compound 15c: Q7-1 21.72% (4 μM); Q7-2 16.54% (4 μM); Q7-3 54.49% (4 μM); Q7-4 7.25% (4 μM) | (H) Compound 18c: Q7-1 1.48% (4 μM); Q7-2 3.70% (4 μM); Q7-3 91.14% (4 μM); Q7-4 3.67% (4 μM) | (I) Compound 18c: Q7-1 20.73% (4 μM); Q7-2 14.32% (4 μM); Q7-3 58.16% (4 μM); Q7-4 6.79% (4 μM) | (J) Compound 20c: Q7-1 3.78% (8 μM); Q7-2 1.72% (8 μM); Q7-3 92.26% (8 μM); Q7-4 2.24% (8 μM) | (K) Compound 20c: Q7-1 6.09% (8 μM); Q7-2 7.35% (8 μM); Q7-3 78.36% (8 μM); Q7-4 8.20% (8 μM) DOUBTS OF THE COPYIST ABOUT THIS PICTURE: Panel A (Control, untreated cells: Q7-1 3.75%, Q7-2 0.00%, Q7-3 96.24%, Q7-4 0.01%) left out of lines because it is not a substance / Dihydro BA panel B, Q7-3: 80.09% partly overlaid by plot points, 80.09 or 80.03 / Dihydro BA panel C, Q7-3: 73.11% partly overlaid by plot points / Compound 18c panel I, Q7-3: 58.16% small print, 58.16 or 58.18 / Compound 15 panel E, Q7-3: 0.58% small print, 0.58 or 0.56

[6] = Homo sapiens, HEK293, mean ± SE

CC(C)C1CC[C@]2(C(=O)NCCCCN)CC[C@]3(C)C(CCC4[C@@]5(C)CCC(=O)C(C)(C)C5CC[C@]43C)C12 (stereo partly drawn) [Compound 4, N-(4-Aminobuthyl)-3-oxolupane-28-amide]
IC50 ([1]; Homo sapiens, HeLa): 2.8 ± 0.28 µM
IC50 ([2]; Homo sapiens, U-937, mean ± SE): 1.7 ± 0.36 µM
melting point: 170 to 172 °C
IC50 (normal human fibroblasts; Homo sapiens, Fibroblast): 3.4 ± 0.19 µM
IC50 ([3]; Homo sapiens, Jurkat): 1.4 ± 0.41 µM
IC50 ([4]; Homo sapiens, K562, mean ± SE): 1.3 ± 0.49 µM
IC50 [5, 6]: 2.4 ± 0.35 µM

CC(C)[C@@H]1CC[C@]2(C(=O)O)CC[C@]3(C)[C@H](CC[C@@H]4[C@@]5(C)CC[C@H](O)C(C)(C)[C@@H]5CC[C@]43C)[C@@H]12 [Dihydro BA, 20,29-dihydrobetulinic acid, reference compound]
IC50 ([1]; Homo sapiens, HeLa): 132 ± 0.47 µM
IC50 ([2]; Homo sapiens, U-937, mean ± SE): 39 ± 0.38 µM
IC50 (normal human fibroblasts; Homo sapiens, Fibroblast): 517 ± 0.26 µM
IC50 ([3]; Homo sapiens, Jurkat): 59 ± 0.31 µM
IC50 ([4]; Homo sapiens, K562, mean ± SE): 44 ± 0.24 µM
early apoptotic cells (Q7-4) (Jurkat cells): 4.0%
late apoptotic cells (Q7-2) (Jurkat cells): 20.5%
living (vital) cells (Q7-3) (Jurkat cells): 73.1%
total number of apoptotic cells (early + late) (Jurkat cells): around 24%
IC50 [5, 6]: 128 ± 0.32 µM

CC(=O)O[C@H]1CC[C@@]2(C)C(CC[C@]3(C)C2CCC2C4C(C(C)C)CC[C@]4(C(=O)NCCN(CCNC(=N)N)CCNC(=N)N)CC[C@]23C)C1(C)C (single isomer, unassigned) (as salt: hydrochloride) [Compound 12b, 3β-N-[2-(N,N′-bis-Ethylgyanidine)-aminoethyl]-3-O-acetyl-lupane-28-amide dihydrochloride]
melting point: 198 to 200 °C

CC(=O)O[C@H]1CC[C@@]2(C)C(CC[C@]3(C)C2CCC2C4C(C(C)C)CC[C@]4(C(=O)NCCN(CCNC(=N)N)CCNC(=N)N)CC[C@]23C)C1(C)C (single isomer, unassigned) (as salt: trifluoroacetate) [Compound 12a, 3β-N-[2-(N,N′-bis-Ethylgyanidine)-aminoethyl]-3-O-acetyl-lupane-28-amide trifluoroacetate]
melting point: 116 to 118 °C

CC(=O)O[C@H]1CC[C@@]2(C)C(CC[C@]3(C)C2CC=C2C4[C@@H](C)[C@H](C)CC[C@]4(C(=O)OCC(CO)(CO)NC(=N)N)CC[C@]23C)C1(C)C (single isomer, unassigned) [Compound 18c, 3β-[2-Guanidine-3-hydroxy-2-(hydroxymethyl)propyl]-3-O-acetyl-urs-12-en-28-oate hydrochloride]
IC50 [1]: 12 ± 0.29 µM
IC50 ([2]; mean ± SE): 5.3 ± 0.29 µM
IC50 (normal human fibroblasts): 51 ± 0.26 µM
IC50 [3]: 3.8 ± 0.23 µM
IC50 ([4]; mean ± SE): 11 ± 0.18 µM
early apoptotic cells (Q7-4) (Jurkat cells): 6.8%
late apoptotic cells (Q7-2) (Jurkat cells): 14.3%
necrotic cells (Q7-1) (Jurkat cells): 20.7%
IC50 ([5]; mean ± SE): 14 ± 0.34 µM

CC(=O)O[C@H]1CC[C@@]2(C)C(CC[C@]3(C)C2CC=C2C4CC(C)(C)CC[C@]4(C(=O)OCC(CO)(CO)NC(=N)N)CC[C@]23C)C1(C)C (stereo partly drawn) [Compound 20c, 3β-[2-Guanidine-3-hydroxy-2-(hydroxymethyl)propyl]-3-O-acetyl-olean-12-en-28-oate hydrochloride]
IC50 [1]: 17 ± 0.32 µM
IC50 ([2]; mean ± SE): 6.8 ± 0.11 µM
IC50 (normal human fibroblasts): 54 ± 0.12 µM
IC50 [3]: 7.6 ± 0.33 µM
IC50 ([4]; mean ± SE): 13 ± 0.45 µM
living (vital) cells (Q7-3) (Jurkat cells): 78.4%
necrotic cells (Q7-1) (Jurkat cells): 6.1%
total number of apoptotic cells (early + late) (Jurkat cells): about 15.5%
IC50 ([5]; mean ± SE): 19 ± 0.17 µM

CC(=O)O[C@H]1CC[C@@]2(C)C(CC[C@]3(C)C2CCC2C4C(C(C)C)CC[C@]4(C(=O)NCCCN4CCN(CCCNC(=N)N)CC4)CC[C@]23C)C1(C)C (stereo partly drawn) (as salt: trifluoroacetate) [Compound 13a, 3β-N-{[3-(3-Propylguanidine)piperazinyl]propyl}-3-O-acetyl-lupane-28-amide trifluoroacetate]
melting point: 92 to 94 °C

CC(=O)O[C@H]1CC[C@@]2(C)C(CC[C@]3(C)C2CCC2C4C(C(C)C)CC[C@]4(C(=O)NCCNC(=N)N)CC[C@]23C)C1(C)C (stereo partly drawn) (as salt: hydrochloride) [Compound 10b, 3β-N-(2-Ethylgyanidine)-3-O-acetyl-lupane-28-amide hydrochloride]
melting point: 192 to 194 °C
